Type in all cases: in vivo
Assay [1] has as its system larvae of the beet army worm (Spodoptera exigua). Nature of the assay: Spodoptera exigua test (cabbage leaf dip, larval mortality). The conditions noted are these: mortality after 6 days; rate of application 100 ppm. The method, then: (§1) Solvent: 7 parts by weight of dimethylformamide
(§2) Emulsifier: 2 parts by weight of alkylaryl polyglycolether
(§3) To produce a suitable preparation of active compound, 1 part by weight of active compound is mixed with the stated amount of solvent and emulsifier, and the concentrate is diluted with emulsifier-containing water to the desired concentration. Cabbage leaves (Brassica oleracea) are treated by being dipped into the preparation of the active compound at the desired concentration and are infested with larvae of the beet army worm (Spodoptera exigua) as long as the leaves are still moist. After a period of time of 6 days, the mortality is determined. 100% means that all the caterpillars have been killed; 0% means that none of the caterpillars have been killed.

Assay [2] relates to larvae of the fall army worm (Spodoptera frugiperda). In words: Spodoptera frugiperda test (cabbage leaf dip, larval mortality). The following applies: mortality after 4 days. The method, then:
as §1, §2
as §3, with “fall” for “beet”, “frugiperda)” for “exigua)”, “4” for “6”

Assay [3] relates to larvae of the diamond black moth Plutella xylostella. In words: Plutella xylostella test (cabbage leaf dip, larval mortality). The following applies: mortality after 4 days. The method, then: as §1, §2
as §3, with “diamond black moth Plutella xylostella” for “beet army worm (Spodoptera exigua)”, “4” for “6”

Regarding `CN/C(=N\[N+](=O)[O-])NCc1cnc(Cl)s1` [clothianidin], the “Efficacy (%)” value in assay [1] turned out to be 45%; in assay [2] (rate of application 20 ppm) it was 0%. Take `O=[N+]([O-])NC1=NCCN1Cc1ccc(Cl)nc1` [imidacloprid]: the “Efficacy (%)” value in assay [2] (rate of application 20 ppm) stood at 0%. `CN1COCN(Cc2cnc(Cl)s2)/C1=N\[N+](=O)[O-]` [thiamethoxam]: the “Efficacy (%)” value in assay [2] (rate of application 100 ppm) is 0%. In the case of `N#C/N=C1\SCCN1Cc1ccc(Cl)nc1` [thiacloprid], the “Efficacy (%)” value in assay [3] (rate of application 20 ppm) was determined as 20%. As to `CCCOC(=O)NCCCN(C)C.Cl` [propamocarb, propyl[3-(dimethylamino)propyl]carbamate hydrochloride], the “Efficacy (%)” value came to 0% in assay [1], 25% in assay [3] (rate of application 200 ppm), 0% in assay [2] (rate of application 100 ppm) and 0% in assay [2] (rate of application 200 ppm).
